Molecular target: T1, Angiotensin II Receptor Type I (AGTR1) (Homo sapiens, UniProt P30556)
T1 construct: expressed in transfected cells; host or cells: Saccharomyces cerevisiae strain DI DCyFIR P1 I (humanized Gαi)
T1 sequence (P30556 1-359): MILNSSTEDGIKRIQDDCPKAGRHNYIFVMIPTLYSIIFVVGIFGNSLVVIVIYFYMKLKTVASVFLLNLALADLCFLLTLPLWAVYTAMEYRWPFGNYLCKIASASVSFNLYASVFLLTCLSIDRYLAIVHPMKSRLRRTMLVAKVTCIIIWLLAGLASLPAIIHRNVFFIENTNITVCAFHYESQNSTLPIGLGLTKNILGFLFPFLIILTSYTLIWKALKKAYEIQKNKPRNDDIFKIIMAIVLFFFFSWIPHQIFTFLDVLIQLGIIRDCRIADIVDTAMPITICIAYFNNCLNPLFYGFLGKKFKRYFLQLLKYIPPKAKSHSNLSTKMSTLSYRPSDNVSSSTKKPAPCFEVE
Assay: AGTR1 modulation via intracellular nanobodies, galactose-induced AGT-II, mTq2 reporter in yeast
Type: cell-based
Details: galactose-induced secreted ligand, Gαi strain; FIG. 5B

**Q.** angiotensin II [AGT-II] was tested. Which “AGTR1 activation by inducible expression of ligand” value did it give?
**A.** successfully resulted in AGTR1 activation
